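These data come from cells grown in 96-well plates and exposed to compound for 48 hours at five concentrations. At the GI50, growth is halved.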 Calls of active or inactive are those of the source. Rule as the data show it: active = GI50 up to about 1.1 µM and inactive = higher.
What was measured:
Assay in all cases: growth of human tumour cells (NCI), 48 h
786-0 = test system: 786-0
A498 = test system: A498
A549 = test system: A549
ACHN = test system: ACHN
CAKI-1 = test system: CAKI-1
CCRF-CEM = test system: CCRF-CEM
COLO 205 = test system: COLO 205
DU-145 = test system: DU-145
EKVX = test system: EKVX
HCC 2998 = test system: HCC 2998
HCT-116 = test system: HCT-116
HCT-15 = test system: HCT-15
HL-60 = test system: HL-60
HOP-62 = test system: HOP-62
HOP-92 = test system: HOP-92
HT-29 = test system: HT-29
Hs-578T = test system: Hs-578T
IGROV-1 = test system: IGROV-1
K562 = test system: K562
KM12 = test system: KM12
LOX IMVI = test system: LOX IMVI
M14 = test system: M14
MCF7 = test system: MCF7
MDA-MB-231 = test system: MDA-MB-231
MDA-MB-435 = test system: MDA-MB-435
MDA-N = test system: MDA-N
MOLT-4 = test system: MOLT-4
Malme-3M = test system: Malme-3M
NCI-H226 = test system: NCI-H226
NCI-H23 = test system: NCI-H23
NCI-H460 = test system: NCI-H460
NCI-H522 = test system: NCI-H522
NCI/ADR-RES = test system: NCI/ADR-RES
OVCAR-3 = test system: OVCAR-3
OVCAR-4 = test system: OVCAR-4
OVCAR-8 = test system: OVCAR-8
PC-3 = test system: PC-3
RPMI-8226 = test system: RPMI-8226
RXF 393 = test system: RXF 393
SF-268 = test system: SF-268
SF-295 = test system: SF-295
SF-539 = test system: SF-539
SK-MEL-28 = test system: SK-MEL-28
SK-MEL-2 = test system: SK-MEL-2
SK-MEL-5 = test system: SK-MEL-5
SK-OV-3 = test system: SK-OV-3
SN12C = test system: SN12C
SNB-19 = test system: SNB-19
SNB-75 = test system: SNB-75
SR = test system: SR
SW-620 = test system: SW-620
T47D = test system: T47D
TK-10 = test system: TK-10
U-251 = test system: U-251
UACC-257 = test system: UACC-257
UACC-62 = test system: UACC-62
UO-31 = test system: UO-31

With `CCN(CC)c1cc2c3c(c1)CCCN3CCC2` the GI50 (786-0) was > 10 µM (inactive), the GI50 (A498) was > 10 µM (inactive) and the GI50 (A549) was > 10 µM (inactive). For the same molecule, the GI50 (ACHN) was > 10 µM (inactive), the GI50 (CAKI-1) was > 10 µM (inactive) and the GI50 (CCRF-CEM) was > 10 µM (inactive). For the same molecule, the GI50 (COLO 205) was > 10 µM (inactive), the GI50 (DU-145) was > 10 µM (inactive) and the GI50 (EKVX) was > 10 µM (inactive). For the same molecule, the GI50 (HCC 2998) was > 10 µM (inactive), the GI50 (HCT-116) was > 10 µM (inactive) and the GI50 (HCT-15) was over 10 µM. The GI50 (HL-60) was > 10 µM (inactive), the GI50 (HOP-62) was > 10 µM (inactive) and the GI50 (HOP-92) was > 10 µM (inactive). The GI50 (HT-29) was > 10 µM (inactive), the GI50 (Hs-578T) was > 10 µM (inactive) and the GI50 (IGROV-1) was > 10 µM (inactive). For the same molecule, the GI50 (K562) was > 10 µM (inactive), the GI50 (KM12) was > 10 µM (inactive) and the GI50 (LOX IMVI) was > 10 µM (inactive). For the same molecule, the GI50 (M14) was > 10 µM (inactive), the GI50 (MCF7) was > 10 µM (inactive) and the GI50 (MDA-MB-231) was > 10 µM (inactive). For the same molecule, the GI50 (MDA-MB-435) was > 10 µM (inactive), the GI50 (MDA-N) was > 10 µM (inactive) and the GI50 (MOLT-4) was > 10 µM (inactive). The GI50 (Malme-3M) was > 10 µM (inactive), the GI50 (NCI-H226) was > 10 µM (inactive) and the GI50 (NCI-H23) was > 10 µM (inactive). The GI50 (NCI-H460) was > 10 µM (inactive), the GI50 (NCI-H522) was > 10 µM (inactive) and the GI50 (NCI/ADR-RES) was > 10 µM (inactive). For the same molecule, the GI50 (OVCAR-3) was > 10 µM (inactive), the GI50 (OVCAR-4) was > 10 µM (inactive) and the GI50 (OVCAR-8) was > 10 µM (inactive). The GI50 (PC-3) was > 10 µM (inactive), the GI50 (RPMI-8226) was > 10 µM (inactive) and the GI50 (RXF 393) was > 10 µM (inactive). The GI50 (SF-268) was > 10 µM (inactive), the GI50 (SF-295) was > 10 µM (inactive) and the GI50 (SF-539) was > 10 µM (inactive). The GI50 (SK-MEL-28) was > 10 µM (inactive), the GI50 (SK-MEL-2) was > 10 µM (inactive) and the GI50 (SK-MEL-5) was > 10 µM (inactive). The GI50 (SK-OV-3) was > 10 µM (inactive), the GI50 (SN12C) was > 10 µM (inactive) and the GI50 (SNB-19) was > 10 µM (inactive). For the same molecule, the GI50 (SNB-75) was > 10 µM (inactive), the GI50 (SR) was > 10 µM (inactive) and the GI50 (SW-620) was > 10 µM (inactive). The GI50 (T47D) was > 10 µM (inactive), the GI50 (TK-10) was > 10 µM (inactive) and the GI50 (U-251) was > 10 µM (inactive). For the same molecule, the GI50 (UACC-257) was > 10 µM (inactive), the GI50 (UACC-62) was > 10 µM (inactive) and the GI50 (UO-31) was > 10 µM (inactive).

From ChEMBL document CHEMBL1201862, “PubChem BioAssay data set” (2004)
